# According to patent publication US12616713B2, “Methods for enhancing vascular density” (priority 2016, dated 2026):
# Entries after “also recorded” stand apart in the source; their conditions may differ.
# Legend:
# [1] = system: C57BL/6J mice; experiment: Metabolic chambers (CLAMS) oxygen consumption; format: in vivo, mouse
# Method: Metabolic chambers (CLAMS™, Columbus Instruments, Columbus, OH) were used to perform whole-body measurements of metabolic function. Following acclimatization to the metabolic chambers, individually housed mice were monitored continuously over 48 h to determine oxygen consumption, carbon dioxide production, respiratory exchange ratio, energy expenditure, food intake, water intake and activity. Body composition (fat mass, lean mass, and total body water) was measured by EchoMRI (Echo MRI™ 900).
# [2] = system: C57BL/6J mice; experiment: Muscle capillaries in mice with lentiviral EC-specific SIRT1 knockdown; format: in vivo, mouse; details: 20-month old mice, SIRT1 miRNA #5 lentivirus, NMN 400, NaHS 20, GYY4137 20 mg/kg/day, four weeks
# Method: Lentiviral particles were concentrated by ultracentrifugation (cite) and viral titer was determined by (cite kit) and injected at 1×10^10 TU/mouse carrying SIRT1 or NT miRNAs to 20-mo old WT C57BL/6J mice (NIA) via retro-orbital injection. Mice received two consecutive injections behind alternate eyes two days apart. 10 days post final injection, mice were assigned to different treatment groups.
# Freshly isolated whole quadriceps and gastrocnemius muscle samples were mounted in OCT compound (Tissue-Tek), placed in an isopentane bath and slowly cooled in liquid nitrogen. Transverse sections at 20 μm-thickness were sectioned on a cryostat (Leica). The sections were fixed in pre-cooled acetone (−20° C.) for 10 min and washed with PBS. Slides were then blocked in normal goat serum and 5% Blocking Reagent (PerkinElmer) in PBST (PBS with 0.1% Triton-X) for 1 h at room temperature, and then incubated with anti-CD31 (ab56299, Abcam) and anti-Laminin (L9393, Sigma), GFP (ab6556, Abcam) or SIRT1 (HPA006295, Sigma) antibodies diluted in blocking buffer overnight at 4° C. […] Images were acquired using a confocal fluorescence microscope (Nikon A1). Quantification of capillaries and capillary density were performed using ImageJ software. […]
# [3] = system: HUVECs; experiment: Cell proliferation assay, HUVECs; format: cell-based, human; details: NMN 500 μM, 48 h, complete growth medium
# Method: ECs (0.1×10^5 cells) were seeded in a 48-well plate and incubated with PBS (vehicle) or NMN (500 μM) in complete growth medium for 48 h. At the end of the incubation time, the cells were harvested and resuspended in Opti-MEM medium. Cell number was determined using flow cytometry (FACSCanto II Analyzer, BD Biosciences, USA).
# [4] = system: SIRT1; experiment: SIRT1 protein levels in HUVECs (Western blot); format: cell-based, human; details: NaHS 0.1 mM and/or NMN 0.5 mM
# Method: SDS-PAGE and Western blot analysis were performed according to standard procedures and detected with the ECL detection kit (Bio-rad, Australia). For Western blot analysis antibodies directed against SIRT1 (Sigma), SIRT3 (CST), SIRT6 (SantaCruz), eNOS (Cell Signaling Technology or CST), cleaved Notch1 (CST), total OXPHOS cocktail (Abcam), PGC-1α (Millipore), VEGF (Abcam), VEGFR2 (Abcam), phospho-VEGFR2 (Millipore), Actin (Cell Signaling Technology), Tubulin (Sigma), 14-3-3 (Cell Signaling Technology), GAPDH (SantaCruz) were used. Quantification of band intensities by densitometry was carried out using ImageJ software.
# [5] = system: NAD^+; experiment: NAD+ measurements in tissues of NMN-treated mice; format: in vivo, mouse; details: 18-month old mice, NMN 400 mg/kg/day in drinking water, two months; liver and gastrocnemius
# Description: SIRT1-iKO, SIRT1-Tg and SIRT1^STOP mice were described previously (Firestein et al., 2008, PLoS One 3, e2020; Price et al., 2012, Cell Metab 15, 675-690). Tie2Cre and Sirt1^flox/flox mice were purchased from Jackson Laboratory (Bar Harbor, ME). MCK-PGC-1α and MyogCre mice were gifts from Dr. Bruce Spiegelman (Dana Farber Cancer Center, MA) and Dr. Eric N. Olson (UT Southwestern, Dallas, TX), respectively. mT-STOP^flox/flox, Gfp mouse was generated in house by E.O.W., which consists of an allele driven by ubiquitous actin B promoter, which has loxP sites flanking membrane-targeted tandem dimer Tomato (mT) and transcriptional STOP cassette, followed by a GFP coding sequence. […] SIRT1-iKO mice were fed tamoxifen (360 mg/kg) diet for five weeks to elicit whole-body SIRT1 exon 4 excision as described previously (Price et al., 2012). […] Levels of NAD^+ and NADH levels were measured in EC and muscle homogenates using commercially available kit (NAD-NADH Glo, Promega) according to manufacturer's instructions. Alternatively, NAD^+ levels in muscle and liver were measured by assay in-house developed method (Uddin et al., 2016, Front Pharmacol 7, 258). […] The other aliquot was acidified with HCl, and then neutralized with NaOH on ice to quantify NAD^+. […] Total NADH and NAD^+ were quantified using a Bio-Rad Imark microplate reader.
# [6] = system: HAECs; experiment: Spheroid sprouting assay, HAECs; format: cell-based, human
# Method: ECs spheroids were generated as described previously (Korff and Augustin, 1998, J Cell Biol 143, 1341-1352). ECs (1000 cells per spheroid) were suspended in EGM-2 medium containing 20% methocel (viscosity: 4000 cps, Sigma) and seeded in non-adherent round-bottom 96-well plates (Sigma). Under these conditions all suspended cells contributed to the formation of a single spheroid. The spheroids were harvested after 24 h embedded into collagen gels. Sprouting was initiated by adding C2C12 CM or EBM-2 medium containing VEGF (50 ng/mL). NMN (0.5 mM), NaHS (0.1 mM), DAPT (20 μM, Cayman Chemical) or SU5416 (10 μM, Sigma) were added to the media wherever mentioned. Angiogenic activity was quantified by measuring the sprout length that had grown out of each spheroid analyzing 8-10 spheroids per group.
smiles,measurement,setting,value
"NC(=O)c1ccc[n+]([C@@H]2O[C@H](COP(=O)([O-])O)[C@@H](O)[C@H]2O)c1 [NMN, nicotinamide mononucleotide]",oxygen consumption higher than non-treated control mice,[1]; dark cycle,23%
same,oxygen consumption higher than non-treated control mice,[1]; light cycle,30%
same,ability to increase vascularization in SIRT1 knockdown mice,[2],blocked in the SIRT1 knockdown mice
same,cell growth (relative cell number),[3],promoted cell growth; also recorded: induced proliferation
same,SIRT1 protein levels,[4],increased SIRT1 protein levels
same,NAD^+ levels in tissues,[5],raised NAD^+ levels
same,"ability of NMN to stimulate spheroid sprouting, dependence on SIRT1","[6]; NT or SIRT1 siRNA, VEGF 50 ng/mL, NMN 0.5 mM",SIRT1-dependent
same,rescue of SU5416-blocked sprouting,[6]; SU5416 10 μM plus NMN 0.5 mM,not rescued
same,VEGF-mediated spheroid sprouting after knockdown of SIRT3 and SIRT6,"[6]; T3 or T6 siRNA, VEGF, NMN 0.5 mM",partially rescued
